“And” between values parts separate entries of the source, which are not always exact repeats. Equal values may be shown once.
Molecular target: T1, ERBB4/ERBB4 (Homo sapiens, UniProt Q15303)
T1 construct: host or cells: U2OS (osteosarcoma cells), PathHunter engineered line
Experiment: PathHunter U2OS ERBB4/ERBB4 dimerization assay, 96-well dose-response
Format: cell-based
Details: for ERBB4/ERBB4 dimerization signal: relative to signal with 0.1 µM NRG1, single biological replicates; for EC50: Fig. 1 panels b, f-l
Method: PathHunter U2OS ERBB4/ERBB4 (osteosarcoma cells; Eurofins, 93-0961C3), U2OS ERBB2/ERBB4 (osteosarcoma cells; Eurofins, 493-0960C3), ERBB2/ERBB3 (osteosarcoma cells; Eurofins, 93-1042C3) and ERBB1/ERBB1 (osteosarcoma cells; Eurofins, 93-0989C3) dimerization cell lines were cultured according to the manufacturer’s instructions. Briefly, cells were cultured in Cell Culture Reagent 103 (Eurofins, 92-3103 G) supplemented with 250 µg/mL Hygromycin B (Eurofins, 92-0029) and 500 µg/mL G418 (Eurofins, 92-0030), and were maintained at 37 °C in humidified atmosphere of 5% CO2. HCFs (Innoprot, P10454) were cultured in fibroblast medium (Innoprot, P60108) supplemented with 10% (v/v) fetal bovine serum (FBS, Innoprot), 10% (v/v) fibroblast growth supplement (Innoprot), and 1% (v/v) penicillin/streptomycin solution (Innoprot). iAMs[33] (kindly provided by LUMC) were cultured in Advanced DMEM F-12 (Thermo Fisher Scientific, 12634028) supplemented with 2% (v/v) heat-inactivated FBS (Thermo Fisher Scientific, 10270106), 1% (v/v) penicillin/streptomycin (10,000 units/mL and 10 mg/mL respectively, Thermo Fisher Scientific, 15140122), 1× GlutaMAX (Thermo Fisher Scientific, 35050061), and 100 ng/mL doxycycline (Tocris, 4090) for proliferation. To induce differentiation, iAMs were transferred to medium without doxycycline.
U2OS ERBB4/ERBB4 dimerization cells were seeded at a density of 5 × 10^4 cells/well in 100 µL Cell Plating 0 Reagent, in white 96-well plates (PerkinElmer, 6005680) and incubated for 24 h at 37 °C, 5% CO2. […] Next, 110 µL PathHunter Flash Detection Reagent was added to each well and incubated at RT for 1 h after which the luminescence signal was measured using the Luminoskan Ascent (Thermo Fisher Scientific). […] The same experimental set-up was used for the U2OS ERBB2/ERBB4, U2OS ERBB2/ERBB3 and U2OS ERBB1/ERBB1 dimerization cell lines.
Category Parameter Description
Assay Type of assay PathHunter Dimerization assays provide a robust, highly sensitive and easy-to-use cell-based functional assay to study various protein activities in a cell. The assay s use
Enzyme Fragment Complementation technology, where the b-galactosidase (b-gal) enzyme is split into two fragments, ProLink and Enzyme Acceptor. Independently these fragments have no b-gal activity. However, when forced to complement through protein-protein interactions, they form an active b-gal enzyme. The PathHunter Dimerization assay detects ligand induced dimerization of two subunits of a receptor-dimer pair. The cells have been engineered to co-express one receptor subunit (ERBB4) fused to Enzyme
Donor, and a second dimer partner (ERBB4) fused to Enzyme Acceptor. Binding of an agonist to one receptor subunit induces it to interact with its dimer partner, forcing complementation of the two enzyme […]
functional enzyme that hydrolyzes a substrate to generate a chemiluminescent signal.
Target ErbB4 receptor (RTK receptor)
Primary measurement Detection of chemiluminescent signal, induced by small-molecule ErbB4 agonists
Key reagents PathHunter Dimerization ErbB4/ErbB4 Cell
Line (93-0961C3) - PathHunter Flash
Detection Kit (03 -0247) - AssayComplete Cell
AssayComplete Cell Detachment Reagent
(92-0009) - AssayComplete Thawing Reagent
T3 (92-4103TR) - AssayComplete Freezing
Assay protocol https://www.discoverx.com/catalog/pathhun

T1 sequence (Q15303 26-1308): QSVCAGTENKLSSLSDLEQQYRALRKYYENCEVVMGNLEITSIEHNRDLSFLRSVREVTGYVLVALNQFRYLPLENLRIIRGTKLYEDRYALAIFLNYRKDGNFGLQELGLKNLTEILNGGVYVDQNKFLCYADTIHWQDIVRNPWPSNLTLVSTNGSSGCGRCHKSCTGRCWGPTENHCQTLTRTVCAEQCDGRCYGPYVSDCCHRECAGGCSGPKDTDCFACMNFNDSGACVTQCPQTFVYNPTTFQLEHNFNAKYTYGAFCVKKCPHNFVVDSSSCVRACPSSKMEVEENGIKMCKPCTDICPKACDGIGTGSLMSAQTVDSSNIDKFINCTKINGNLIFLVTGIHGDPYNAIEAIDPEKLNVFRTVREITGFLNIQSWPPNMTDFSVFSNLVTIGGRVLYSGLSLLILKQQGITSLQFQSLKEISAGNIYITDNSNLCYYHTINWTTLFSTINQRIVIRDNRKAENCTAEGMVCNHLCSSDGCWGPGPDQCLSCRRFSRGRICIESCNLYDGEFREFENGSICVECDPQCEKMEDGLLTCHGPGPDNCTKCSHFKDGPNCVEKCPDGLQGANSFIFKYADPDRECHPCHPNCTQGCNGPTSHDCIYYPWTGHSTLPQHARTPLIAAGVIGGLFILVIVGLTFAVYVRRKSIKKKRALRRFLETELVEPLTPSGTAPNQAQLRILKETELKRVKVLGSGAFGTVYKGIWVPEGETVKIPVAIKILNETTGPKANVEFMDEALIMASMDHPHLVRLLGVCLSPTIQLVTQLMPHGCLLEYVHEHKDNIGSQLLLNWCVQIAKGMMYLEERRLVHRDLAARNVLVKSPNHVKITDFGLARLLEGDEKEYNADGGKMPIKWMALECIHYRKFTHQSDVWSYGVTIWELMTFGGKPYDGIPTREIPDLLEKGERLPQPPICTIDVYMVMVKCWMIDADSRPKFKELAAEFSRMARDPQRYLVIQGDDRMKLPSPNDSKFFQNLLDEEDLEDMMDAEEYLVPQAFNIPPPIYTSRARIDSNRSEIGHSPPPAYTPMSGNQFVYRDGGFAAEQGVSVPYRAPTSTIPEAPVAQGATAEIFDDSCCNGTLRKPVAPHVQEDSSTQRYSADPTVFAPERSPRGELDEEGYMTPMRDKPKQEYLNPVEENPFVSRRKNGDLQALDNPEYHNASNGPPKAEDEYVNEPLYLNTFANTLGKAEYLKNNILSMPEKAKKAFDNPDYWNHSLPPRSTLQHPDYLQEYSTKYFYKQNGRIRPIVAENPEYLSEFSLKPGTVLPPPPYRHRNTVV
T1 sequence (Q15303 26-1308): as above

| SMILES | induction of ERBB4 dimerization (in words) | ERBB4/ERBB4 dimerization signal (3.125e-8 M) | ERBB4/ERBB4 dimerization signal (6.25e-8 M) | ERBB4/ERBB4 dimerization signal (1.25e-7 M) | ERBB4/ERBB4 dimerization signal (2.5e-7 M) | ERBB4/ERBB4 dimerization signal (5e-7 M) | ERBB4/ERBB4 dimerization signal (1e-6 M) | ERBB4/ERBB4 dimerization signal (2e-6 M) | ERBB4/ERBB4 dimerization signal (4e-6 M) | ERBB4/ERBB4 dimerization signal (8e-6 M) | ERBB4/ERBB4 dimerization signal (1.6e-5 M) | ERBB4/ERBB4 dimerization signal (3.2e-5 M) | EC50 [µM] |
| --- | --- | --- | --- | --- | --- | --- | --- | --- | --- | --- | --- | --- | --- |
| Cc1sc2nc(SCC(=O)NC(C)(C#N)C(C)C)n(C3CCCC3)c(=O)c2c1C (stereo not shown) [EF-8] | induced ERBB4 dimerization in a concentration-dependent manner | 0 | -2.398 and 2.948 and -2.16 and -2.631 | -3.058 and 0.945 and -1.747 and 1.488 | -2.005 and -2.555 and -0.053 and 1.532 | -2.09 and -2.305 and 2.13 and 0.7408 | -1.274 and -2.984 and 1.804 and 0.1664 | -1.378 and -1.267 and 1.368 and 2.734 | -1.56 and -0.487 and 3.629 and 7.521 | -0.129 and 2.382 and 5.053 and 7.016 | 5.735 and 10.567 and 10.209 and 8.435 | 13.012 and 24.912 and 17.432 | 14 |
| O=C1NCCCCC1Sc1nc2sc3c(c2c(=O)n1C1CCCC1)CCCC3 (stereo not shown) [EF-5] | induced ERBB4 dimerization in a concentration-dependent manner | 0 | 0.55 and -5.82 and -1.2625 and -2.273 | -0.81 and -3.79 and -1.2155 and 0.9982 | 2.18 and -1.68 and -1.408 and 0.7189 | 0.6 and -0.22 and -2.045 and 0.5619 | 1.62 and -1.86 and -1.923 and 1.909 | 0.85 and -0.68 and -0.804 and 3.362 | 1.61 and 5.16 and 4.378 and 4.178 | 4.54 and 3.781 and 4.611 | 16.34 and 17.63 and 4.256 and 4.3885 | 15.88 and 18.62 and 11.2465 and 8.67 | 6.8 |
| Cc1sc2nc(SC(C)C(=O)Nc3sccc3C(N)=O)n(CC(C)C)c(=O)c2c1C (stereo not shown) [EF-6] | induced ERBB4 dimerization in a concentration-dependent manner | 0 | -10.54 and 0.126 and -1.899 | -0.74 and -11.14 and 0.573 and -2.081 | -11.05 and 1.316 and 0.08162 | -1.14 and -8.91 and 2.656 and 0.4928 | -7.05 and 2.748 and 1.042 | -1.29 and -3.55 and 2.61 and 5.158 | 3.35 and 5.191 and 6.31 | 7.22 and 8.65 and 7.634 and 6.661 | 15.88 and 10.304 and 5.283 | 10.39 and 15.72 and 13.149 and 5.2549 | 7.4 |
| CC(Sc1nc2ccccc2c(=O)n1C1CCCC1)C(=O)N(C)c1ccccc1 (stereo not shown) [EF-3] | – | 0 | -1.21 and 2.4 and -0.0725 | -1.21 and 2.26 and 0.6885 | -1.52 and 3.09 and -0.0015 | -1.8 and 4 and -1.488 | -0.91 and 4.12 and -1.3115 | -2.34 and 4.47 and -0.737 | -2.82 and 3.65 and 0.377 | -2.1 and 3.98 and 3.507 | -0.15 and 7.88 and 11.189 | 10.32 and 12.81 and 17.0765 | 15.9 |
| CC(=O)c1ccc(NC(=O)C(C)Sc2nc3ccccc3c(=O)n2C2CCCC2)cc1 (stereo not shown) [EF-2] | – | 0 | 2.15 and 4.6 and 0.468 and 1.148 | 3.45 and 2.29 and 0.641 and 1.187 | 4.04 and 4.36 and 1.213 and -1.342 | 1.37 and 3.12 and 2.49 and 0.6545 | 2.5 and 5.02 and 2.238 and 2.209 | 4.33 and 4.8 and 3.759 and 4.682 | 3.95 and 4.91 and 4.578 and 5.322 | 8.72 and 7.12 and 6.167 and 6.988 | 9.4 and 10.69 and 8.539 and 7.868 | 12.78 and 12.75 and 7.517 and 9.504 | 3.3 |
| CC(Sc1nc2ccccc2c(=O)n1C1CCCC1)c1nc2ccccc2n1C(F)F (stereo not shown) [EF-7] | induced ERBB4 dimerization in a concentration-dependent manner | 0 | 1.834 and 3.035 and 0.03 and -1.937 | -0.545 and 2.505 and -0.7885 and 2.028 | 4.185 and 4.81 and -0.3825 and 0.1978 | -2.369 and -1.66 and -2.1805 and 0.9417 | -1.082 and -1.615 and -1.204 and 2.348 | -0.26 and -0.926 and -0.8585 and 4.47 | 0.729 and 3.237 and 0.665 and 4.903 | 3.996 and 7.56 and 2.421 and 5.8011 | 6.204 and 12.704 and 5.9735 and 4.731 | 9.166 and 15.395 and 6.6065 and 4.169 | 4.4 |
| CC(C)n1c(SC(C(=O)NC2CC2)c2ccccc2)nc2sc3c(c2c1=O)CCC3 (stereo not shown) [EF-4] | – | 0 | -0.82 and -1.6 and 0.98 and -1.282 and -1.385 | -1.06 and 0.03 and 3.38 and -1.705 and 1.217 | 0.06 and -1.83 and 3.79 and -0.533 and -0.2429 | 0.37 and -1.62 and 3.34 and -1.138 and -0.1012 | -0.43 and -1.64 and 5.89 and 0.03433 and 4.575 | 0.21 and 0.63 and 6.37 and 2.286 and 6.859 | 2.3 and -0.27 and 8.83 and 5.465 and 8.345 | 3.99 and 2.72 and 14.5 and 12.0003 and 11.0326 | 10.7 (2×) and 28.43 and 14.396 and 16.9022 | 14.22 and 10.37 and 32.96 and 14.248 and 12.7415 | 7.9 |

— article PMC11724075, “Small-molecule-induced ERBB4 activation to treat heart failure” (Nature Communications, 2025)
